Six molecules from PubChem BioAssay (NCI) can be followed below.

SMILES strings stand for the structures.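 1) Cells in 96-well plates. 2) Compound, 48 h, 5 concentrations. 3) Linear interpolation between surrounding doses. 4) Unreached endpoint = highest concentration. GI50 = concentration required for 50% inhibition of growth. TGI: total growth inhibition.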

What all share (experiment): NCI-60 cell line screen, 48 h
In assay [1] the test system is PC-3 prostate.
Assay [2] concerns OVCAR-3 ovarian.
Assay [3] relates to EKVX NSCLC.
Assay [4] has as its system TK-10 renal.
The test system of assay [5] is BT-549 breast.
In assay [6] the test system is COLO 205 colon.
The subject of assay [7] is MOLT-4 leukemia.
Assay [8] has as its system OVCAR-8 ovarian.
The test system of assay [9] is NCI-H226 lung.
For assay [10], the system named is MDA-MB-468 breast.
Assay [11] has as its system LOX IMVI melanoma.
Assay [12] concerns T-47D breast.
The test system of assay [13] is RPMI-8226 leukemia.
Assay [14] relates to CCRF-CEM leukemia.
Assay [15] has as its system SK-MEL-28 melanoma.
Assay [16] deals with MDA-MB-435.
Assay [17] concerns HS 578T breast.
Assay [18] has as its system A498 renal.
The test system of assay [19] is SF-295 CNS.
Assay [20] relates to NCI-H522 lung.
In assay [21] the test system is SR leukemia.
For assay [22], the system named is MALME-3M melanoma.
The subject of assay [23] is SF-268 CNS.
For assay [24], the system named is HOP-62 NSCLC.
Assay [25] has as its system 786-0 renal.
Assay [26] relates to NCI-H23 lung.
Assay [27] concerns CAKI-1 renal.
For assay [28], the system named is HT29 colon.
Assay [29] deals with ACHN renal.
Assay [30] deals with KM12 colon.
Assay [31] concerns SW-620 colon.
Assay [32] has as its system OVCAR-4 ovarian.
Assay [33] relates to DU-145 prostate.
Assay [34] concerns IGROV1 ovarian.
Assay [35] concerns NCI-H460 lung.
Assay [36] relates to U251 CNS.
Assay [37] relates to HCT-15 colon.
In assay [38] the test system is RXF 393 renal.
The subject of assay [39] is UO-31 renal.
The test system of assay [40] is HCC-2998 colon.
Assay [41] concerns UACC-257 melanoma.
In assay [42] the test system is MDA-MB-231 breast.
The subject of assay [43] is SK-OV-3 ovarian.
In assay [44] the test system is SNB-19 CNS.
For assay [45], the system named is K-562 leukemia.
Assay [46] has as its system SNB-75 CNS.
Assay [47] concerns HOP-92 NSCLC.
In assay [48] the test system is SF-539 CNS.
Assay [49] relates to SN12C renal.
Assay [50] deals with SK-MEL-2 melanoma.
Assay [51] relates to OVCAR-5 ovarian.
Assay [52] concerns UACC-62 melanoma.
Assay [53] deals with HL-60(TB) leukemia.
Assay [54] deals with M14 melanoma.
The subject of assay [55] is SK-MEL-5 melanoma.
Assay [56] concerns HCT-116 colon.
The subject of assay [57] is MCF7 breast.
Assay [58] has as its system A549 NSCLC.

For `Cc1nc(Nc2nc(C)c3ccc(OCCN4CCOCC4)cc3n2)[nH]c(=O)c1C`, the GI50 in [1] was 4.04 µM; in assay [2] it was 3.12 µM; in assay [3] it was 4.15 µM; in [4] it was 2.99 µM; in assay [5] it was 3.55 µM; in assay [6], 2.25 µM. Moreover, the GI50 was 3.05 µM in assay [7]; 4.04 µM in assay [8]; 2.86 µM in assay [9]; 1.72 µM in [10]; 2.39 µM in assay [11]; 4.36 µM in assay [12]. Further, the GI50 is 2.79 µM in assay [13]; 3.26 µM in assay [14]; 3.64 µM in assay [15]; 4.28 µM in assay [16]; 3.79 µM in assay [17]; 2.16 µM in assay [18]. Besides, the GI50 is 4.43 µM in assay [19]; 2.45 µM in [20]; 3.03 µM in [21]; 2.38 µM in [22]; 3.58 µM in [23]; 4.59 µM in [24]. The GI50 in assay [25] is 3.75 µM; in assay [26] it was 2.53 µM; in [27], 3.66 µM; in assay [28], 3.01 µM; in assay [29], 3.85 µM; in [30] it was 3.14 µM. Further, the GI50 in assay [31] was 3.39 µM; in [32], 2.54 µM; in assay [33], 2.94 µM; in [34] it was 3.1 µM; in [35], 2.94 µM; in [36], 4.16 µM. The GI50 in assay [37] was 3.15 µM; in assay [38] it was 1.95 µM; in assay [39], 2.95 µM; in assay [40], 3.1 µM; in assay [41] it was 4.03 µM; in assay [42], 2.45 µM. Moreover, the GI50 in [43] is 4.67 µM; in assay [44], 4.66 µM; in assay [45], 3.31 µM; in assay [46], 1.92 µM; in [47], 2.91 µM; in [48] it was 2.82 µM. Also, the GI50 in assay [49] is 3.46 µM; in assay [50] it was 2.03 µM; in assay [51], 4.22 µM; in [52] it was 2.56 µM; in assay [53], 2.27 µM; in [54], 4.36 µM. Moreover, the GI50 in [55] is 2.29 µM; in [56] it was 3.09 µM; in assay [57] it was 4.15 µM; in assay [58] it was 3.37 µM. For the same molecule, the TGI worked out at 27 µM in [1]; 13.7 µM in [2]; 26.7 µM in assay [3]; 22.4 µM in assay [4]; 12.1 µM in assay [5]; 5.58 µM in [6]. The TGI in [7] amounted to 22 µM; in assay [8], 17.9 µM; in assay [9], 11.1 µM; in assay [10], 3.8 µM; in [11] it was 6.72 µM; in [12], 43.5 µM. In addition, the TGI in [13] was 8.33 µM; in assay [14], 13.8 µM; in assay [15], 14.3 µM; in assay [16] it was 15.8 µM; in assay [17], 23.6 µM; in assay [18] it was 6.52 µM. The TGI in assay [19] was 57.9 µM; in assay [20] it was 8.57 µM; in assay [21] it was 10.7 µM; in assay [22] it was 9.06 µM; in [23] it was 19 µM; in assay [24], 20.4 µM. The TGI was found to be 18.2 µM in assay [25]; 5.91 µM in assay [26]; 24.2 µM in [27]; 9.94 µM in assay [28]; 19.4 µM in assay [29]; 10.8 µM in assay [30]. For the same molecule, the TGI in assay [31] is 20.7 µM; in assay [32], 7.74 µM; in assay [33] it was 9.03 µM; in [34], 12.6 µM; in [35], 9.12 µM; in assay [36], 51.4 µM. Also, the TGI was found to be 18.8 µM in [37]; 4.47 µM in assay [38]; 15.2 µM in assay [39]; 5.43 µM in assay [40]; 25.9 µM in assay [41]; 6.05 µM in [42]. Further, the TGI in assay [43] amounted to 24.8 µM; in assay [44], 24.6 µM; in assay [45] it was 27.4 µM; in assay [46], 8.83 µM; in assay [47], 9.9 µM; in assay [48], 8.86 µM. For the same molecule, the TGI in assay [49] is 19.5 µM; in assay [50] it was 5.13 µM; in assay [51], 27.5 µM; in assay [52] it was 8.19 µM; in assay [53], 6.83 µM; in [54] it was 17.4 µM. Moreover, the TGI is 6.87 µM in [55], 12.3 µM in assay [56], greater than 100 µM in [57] and 15.4 µM in [58].
`CN1CCN(c2ccc(N3Cc4ccccc4OC4=C3C(=O)c3c(O)ccc(O)c3C4=O)cn2)CC1`: in assay [10], the GI50 is 0.229 µM and the TGI was 0.578 µM.
For `CCOC(=O)C1=C(N)CCC1C` (stereo unspecified) the same measures were greater than 100 µM and greater than 100 µM.
For `Cc1ccc(-c2cc3c(NC(=O)C4CC4)ncnc3o2)cc1` the same measures were greater than 25 µM and greater than 25 µM.
For `CC(C)CCC[C@@H](C)[C@H]1CCC2C3=CCn4c(=O)ccc(=O)n4C3CC[C@@]21C` (stereo partly specified) the same measures were 0.887 µM and 2.98 µM.
`CS(=O)(=O)Nc1ccc(Nc2c3ccccc3nc3cc(N)ccc23)cc1`: in assay [10], the GI50 is 0.106 µM and the TGI is 0.973 µM.
